Measured values published in paper PMC8279415, “Targeting Acute Myelogenous Leukemia Using Potent Human Dihydroorotate Dehydrogenase Inhibitors Based on the 2-Hydroxypyrazolo[1,5-a]pyridine Scaffold: SAR of the Biphenyl Moiety” (Journal of Medicinal Chemistry, 2021).
Converted amounts (≈) assume the structure as drawn. “Also recorded” adds a separate entry of the source. Like-named read-outs stand apart in the source and are kept apart here.

Key:
[1] = cited from earlier work
[2] = system: THP1 cells; experiment: Annexin V apoptosis assay in THP1; settings: Homo sapiens
[3] = system: Jurkat cells; experiment: CFSE-based cytotoxic activity assay; settings: concentration inducing cytotoxicity ≥30%, 3 days
[4] = parameters: method as in doi:10.1158/1538-7445.AM2019-2; settings: cited from earlier work
[5] = cited from earlier work; remark: listed apart in the source
[6] = system: THP1 cells; experiment: Differentiation assay (CD14 expression) in THP1; settings: Homo sapiens
[7] = Protein binding in vitro (ultrafiltration); assay type: in vitro ADME; settings: male, human serum, 37 °C, read-out: protein binding (% bond) (converted)
Procedure: This was achieved via ultrafiltration using commercially available membrane systems (Centrifree ultrafiltration devices with ultracel YM-T membrane, Merck). […] 1 mL of the solution obtained in the sample reservoir of the ultrafiltration device was gently shaken in an orbital shaker at 37 °C for 1 h. […] The concentrations of the compounds in the ultrafiltrate and filtrate were determined using reverse-phase UHPLC, and the chromatographic conditions were those described above with different injection volumes: 20 μL for ultrafiltrate samples and 2 μL for filtrate samples.

[8] = system: THP1 cells; experiment: Fixed-concentration screening of differentiation (CD14) and apoptosis (annexin V) in THP1, with or without uridine; assay type: cell-based, human
Procedure: DMSO (dimethyl sulfoxide) acts as the negative control group as it was used to solubilize hDHODH inhibitors. ∗, ∗∗, ∗∗∗ represent the statistical significance for apoptosis (respectively p < 0.05, < 0.01, and <0.001). #, ##, and ### represent the statistical significance for differentiation (respectively p < 0.05, <0.01, and <0.001). The statistical significance is calculated by comparing the compounds to DMSO.
The statistical significance is calculated by comparing the compounds to DMSO.

[9] = target: T1, recombinant hDHODH (Homo sapiens, UniProt Q02127); experiment: hDHODH inhibition assay (DCIP reduction); assay type: biochemical
T1 construct: made in house; host or cells: E. coli BL21DE3 PyrD
T1 sequence (Q02127 whole entry): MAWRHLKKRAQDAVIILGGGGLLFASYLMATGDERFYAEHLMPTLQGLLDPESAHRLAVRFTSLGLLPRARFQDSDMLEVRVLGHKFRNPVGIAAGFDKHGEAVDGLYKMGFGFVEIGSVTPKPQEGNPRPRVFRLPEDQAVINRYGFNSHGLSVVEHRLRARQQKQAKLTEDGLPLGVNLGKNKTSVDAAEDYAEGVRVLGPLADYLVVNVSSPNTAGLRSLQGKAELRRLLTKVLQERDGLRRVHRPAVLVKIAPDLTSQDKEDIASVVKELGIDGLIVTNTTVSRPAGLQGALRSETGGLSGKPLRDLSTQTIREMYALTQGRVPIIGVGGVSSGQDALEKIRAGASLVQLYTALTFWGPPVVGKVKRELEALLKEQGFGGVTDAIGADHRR
Procedure: BL21DE3 PyrD E. coli cells were transformed using the plasmid construct pFN2A–hDHODH (kindly given by Department of Drug Science and Technology, University of Turin, Turin, Italy). The vector produces hDHODH as an N-terminal GST-fusion protein. Cells were grown at 37 °C in LB medium supplemented with 0.1 mM flavin mononucleotide (Cayman Chemical). […] Triton X-100 was added to the lysate, to a final concentration of 1%, before centrifugation at 14 000g for 40 min at 4 °C. The clarified supernatant was incubated with DNase I for 30 min at room temperature, supplemented with 2 mM dithiothreitol (DTT), and filtered through a 0.45 μm syringe filter as previously described by Sainas et al.[18] The GST-fused enzyme was purified from the bacterial lysate using affinity chromatography on immobilized glutathione-Sepharose columns (GE- […]). The GST tag was not cleaved for further analysis. All the reagents used in the protein expression and purification were supplied by Merck/Sigma-Aldrich if not otherwise specified.
The enzymatic inhibition assay was optimized for being performed on a 96-well plate and to achieve higher throughput. For each well of the plate a total volume of 200 μL was used: 5 μL of purified GST-hDHODH; 60 μL of 2,6-dichloroindophenol (DCIP) 50 μM; 20 μL of coenzyme Q10 enzyme 100 μM; 20 μL of dihydroorotate (DHO) 500 μM; Tris-HCl, pH 8, up to a final volume of 200 μL. Inhibitory activity was assessed by monitoring the reduction of DCIP, which is associated with the oxidation of dihydroorotate as catalyzed by the DHODH enzyme. The enzyme was preincubated for 5 min at 37 °C in Tris-HCl, pH 8, with coenzyme Q10, with DCIP (50 μM), and with the compounds to be tested used at different concentrations (final DMSO concentration 0.1% v/v). The reaction was initiated by the addition of DHO (500 μM), and the absorbance kinetic reduction was monitored at λ = 650 nm using a multiplate reader (Tecan, M1000Pro). In order to assess the minimum and maximum absorbance values of the enzymatic reaction, a Min control value was obtained by measuring the absorbance without DHO. Similarly, a Max value was obtained by measuring the absorbance with DHO but no inhibitor. A blank reduction calculation was also performed by measuring the absorbance values using 180 μL of Tris-HCl and 20 μL of coenzyme Q10. The instrument was set to read the absorbance values every 10 s for a total read time of 10 min at 37 °C. […] Values are the mean ± SE of three independent experiments.

[10] = LogD7.4, shake-flask n-octanol/PBS; settings: n-octanol/PBS, pH 7.4
Procedure: The partition coefficients between n-octanol and PBS at pH 7.4 (LogD^7.4) were obtained using the shake-flask technique at room temperature. In the shake-flask experiments, 50 mM phosphate buffered saline, pH 7.4, was used as the aqueous phase. The organic (n-octanol) and aqueous phases were mutually saturated by shaking for 4 h. The compounds were solubilized in the buffered aqueous phase at the highest concentration compatible with solubility, and appropriate amounts of n-octanol were added. The two phases were shaken for about 20 min, by which time the partitioning equilibrium of solutes had been reached, and then centrifuged (10 000 rpm, 10 min). The concentration of the solutes was measured in the aqueous phase using a UV spectrophotometer (Varian Cary 50BIO); absorbance values (recorded for each compound at the wavelength of maximum absorption) were interpolated in calibration curves obtained using standard solutions of the compounds (r^2 > 0.99). Each log D value is an average of at least six measurements.

[11] = system: U937 cells; experiment: Annexin V apoptosis assay in U937; settings: Homo sapiens, U-937, 72 h, read-out: apoptosis EC50 U937 (CL 95%)
[12] = system: U937 cells; experiment: Differentiation assay (CD11b expression) in U937; settings: Homo sapiens, U-937, 72 h, read-out: differentiation EC50 U937 (CL 95%)
[13] = Solubility assay at pH 7.4 in PBS; assay type: physicochemical; settings: pH 7.4, 25 °C, 24 h, LOD 6 μM; for solubility at 24 h: phosphate buffered saline
Procedure: These suspensions were filtered through a PTFE 0.45 μm filter (VWR), and the solutions were chromatographically analyzed using a PerkinElmer ultrahigh performance liquid chromatography (UHPLC) instrument, equipped with a reverse-phase (RP) C18 Phenomenex column (2.1 mm × 100 mm, 1.7 μm particle size). […] The flow rate was 0.5 mL/min. Standard injection volumes were either 2 or 4 μL for poorly soluble compounds. The detection system was a PerkinElmer diode array detector. The wavelengths that were monitored for each compound were defined according to the compound’s own absorption spectrum. Solubility, expressed as μM concentration of the saturated solution, was calculated via interpolation with external calibration curves that were obtained with solutions of each compound in acetonitrile.

[14] = In vitro metabolic profile in rat-liver microsomes; assay type: in vitro ADME
Procedure: SyGMa (systematic generation of potential metabolites) software, a tool that lists predicted metabolites with associated empirical probability scores, was used to identify putative metabolites, which were then investigated by analyzing samples with liquid chromatography coupled to high-resolution mass spectrometry (HPLC–HRMS). […] The full-scan MS data acquired for all of the samples were analyzed to find the m/z values of the predicted molecular structures. In order to exclude interfering signals, the results obtained were compared to blank samples and common background peaks were not considered.
Rat-liver microsomes (Sprague-Dawley, male, Sigma-Aldrich; 20 mg/mL protein concentration) were incubated with the candidate compound solution (5 μM final concentration, with 1% DMSO) and Tris buffer (0.1 M, pH = 7.4). The regenerating system, which slowly generated coenzyme units over the incubation time, leading to a better reproduction of in vivo behavior, was composed of MgCl2 (3.3 mM), NADP^+ (1.3 mM), Glu6P (3.5 mM), and Glu6P dehydrogenase (0.5 U/mL).
The incubation time started with the addition of the microsomes suspension (0.5 mg/mL).
Metabolic reactions were stopped by adding 100 μL of cooled acetonitrile to the 100 μL sample of the incubation mixture. Samples were centrifuged to provoke protein precipitation, and the supernatants were immediately stocked at −80 °C, until analysis, to prevent the potential degradation of unstable products.
The products of in vitro metabolism were identified using a high-resolution mass spectrometer (Q-Exactive Orbitrap, Thermo Scientific) coupled to an HPLC instrument (1200 system Agilent). All analytes were separated on an Ascentis C18 column (150 mm × 2.1 mm, 5 μm particle size) maintained at 35 °C. The elution mixture was composed of solvent A (0.1% formic acid in water for positive ionization mode and 0.05% acetic acid for negative ionization mode) and solvent B (acetonitrile). […] MS2-DIA scans were acquired at R = 17 500 and with variable collision energies ranging from 30 to 45, depending on the m/z of the parent ion.

[15] = THP-1, 72 h, read-out: apoptosis EC50 THP1 (CL 95%)
[16] = THP-1, 72 h, read-out: differentiation EC50 THP1 (CL 95%)
[17] = mean ± SE of three independent experiments, read-out: hDHODH, IC50 ± SE
[18] = supplementary CSV, values differ from Table 2, read-out: hDHODH IC50 ± SE (supplement CSV)
[19] = THP-1, read-out: Apoptosis EC50 (C.L.95%) (supplement CSV)
[20] = THP-1, read-out: Differentiation EC50 (C.L.95%) (supplement CSV)

SMILES | EC50 [2, 15] [nM] | cytoxicity Jurkat (effect ≥30% ± SD) [3] [µM] | EC50 [6, 16] [nM] | fraction unbound at 1 h, 50 µM [7] | IC50 [9, 17] [nM] | IC50 [9, 18] [nM] | logD [10] | EC50 [2, 19] [nM] | activity in cells (differentiation and apoptosis) ([8]; THP1, 0.1 μM) | EC50 [11] [nM] | EC50 [12] [nM] | solubility at 24 h [13] [µM] | EC50 [6, 20] [nM] | further results
COc1cccc(-c2cc(F)c(Nc3ncccc3C(=O)O)c(F)c2)c1 [ASLAN003] |  |  |  |  |  |  |  |  |  |  |  |  |  | protein binding (% bond) [1]: >99[25] %
CCn1c(CO)nn(-c2cc(O[C@@H](C)C(F)(F)F)c(C(=O)Nc3c(F)cccc3Cl)cc2F)c1=O [BAY-2402234, reference compound] | 3.4 | 36 ± 4 | 2.4 |  |  |  |  |  |  |  |  |  |  | solubility in PBS [4]: <1[31] μM; LogD^7.4 [5]: 2.7[27]
Cc1c(-c2ccc(-c3ccccc3F)cc2)nc2ccc(F)cc2c1C(=O)O [Brequinar, reference compound] |  |  |  | 0.0117 |  |  |  |  |  |  |  |  |  | 
O=C(Nc1c(F)c(F)c(-c2cccnc2)c(F)c1F)c1c(O)nn2ccccc12 [Compound 8, 2-Hydroxy-N-(2,3,5,6-tetrafluoro-4-(pyridin-3-yl)phenyl)pyrazolo[1,5-a]pyridine-3-carboxamide] |  |  |  | 0.0042 | 6.23 ± 0.63 | 7.19 ± 0.19 | 0.98 ± 0.03 |  |  |  |  |  |  | activity in cells (differentiation and apoptosis) ([8]; THP1, 1 μM): basically inactive
O=C(Nc1c(F)c(F)c(-c2cccc(F)c2)c(F)c1F)c1c(O)nn2ccccc12 [Compound 11, 2-Hydroxy-N-(2,3,3′,5,6-pentafluoro-[1,1′-biphenyl]-4-yl)pyrazolo[1,5-a]pyridine-3-carboxamide] | 250 | 39 ± 3 | 67.6 | 0.0004 | 2.03 ± 0.44 | 2.37 ± 0.35 | 2.09 ± 0.04 | 222 | highly active | 68.2 | 40.7 | < 6 | 58.9 | solubility in PBS [13]: <LOD
O=C(Nc1c(F)c(F)c(-c2cccc(C(F)(F)F)c2)c(F)c1F)c1c(O)nn2ccccc12 [Compound 13, 2-Hydroxy-N-(2,3,5,6-tetrafluoro-3′-(trifluoromethyl)-[1,1′-biphenyl]-4-yl)pyrazolo[1,5-a]pyridine-3-carboxamide] | 51.1 | >100 | 38.3 | 0.0006 | 6.34 ± 0.63 | 3.01 ± 0.37 | 2.69 ± 0.03 | 42.9 | highly active | 60 | 34.2 | < 6 | 32 | solubility in PBS [13]: <LOD
O=C(Nc1c(F)c(F)c(-c2cccc(OC(F)(F)F)c2)c(F)c1F)c1c(O)nn2ccccc12 [Compound 15, 2-Hydroxy-N-(2,3,5,6-tetrafluoro-3′-(trifluoromethoxy)-[1,1′-biphenyl]-4-yl)pyrazolo[1,5-a]pyridine-3-carboxamide] | 39.6 | >100 | 31.5 |  |  | 2.62 ± 0.79 | 3.27 ± 0.19 | 32.6 | highly active | 35.3 | 8.6 | 8.1 (≈ 3.93 µg/mL) | 28 | metabolites identified in sample C ([14]; active rat-liver microsomes and regenerating system, HPLC-HRMS): did not identify appreciable concentration of metabolites; parent compound recovered ([14]; rat-liver microsomes with regenerating system, 2 h incubation): 100%; metabolic stability ([14]; rat-liver microsomes, 2 h): metabolically stable; also recorded: good metabolic stability
COc1cccc(-c2c(F)c(F)c(NC(=O)c3c(O)nn4ccccc34)c(F)c2F)c1 [Compound 16, 2-Hydroxy-N-(2,3,5,6-tetrafluoro-3′-methoxy-[1,1′-biphenyl]-4-yl)pyrazolo[1,5-a]pyridine-3-carboxamide] | 37.9 | 68 ± 7 | 31.2 | 0.0005 |  | 1.47 ± 0.33 |  | 29.6 | highly active | 42.8 | 31.1 | 74.3 (≈ 32 µg/mL) | 26.9 | 
